Experimental data: patent US20160051543A1 (CHANRX CORPORATION, priority 2013, published 2016)

Legend:
[1] = Plasma concentrations after a single 300 mg dose of vanoxerine in 25 patients (Example 1); assay type: in vivo, human; conditions: any time point
Experimental: Each patient gave samples before administration of their dose, and then again at nine further time points, 30 minutes after administration, 1, 2, 3, 4, 6, 8, 12, and 24 hours post administration.

clinical = conditions: human, in vivo
Source text: The results are listed below in Table 7.

[2] = human, in vivo
Experimental: A standardized meal was served 15 minutes prior to each dosing.
The non-linear kinetics may be due to increasing bioavailability at higher doses based on a saturation of first pass metabolism.

[3] = Daily dosing for 7 days in four patients (Example 4); assay type: in vivo, human
[4] = test system: recent onset symptomatic AF/AFL; assay: Double-blinded placebo-controlled study, conversion of recent onset symptomatic AF/AFL to sinus rhythm (Example 6); assay type: in vivo, human
Experimental: (§1) The vanoxerine or identical appearing placebo was randomly assigned and administered in a double-blinded fashion.
Accordingly, a measurement of the improvement comprises a comparison to the rate of conversion of placebo, wherein the improvement is based on the percent increase in conversion over placebo. The 200 mg, having an improvement of conversion of 38%, 96%, and 55% at the above time points, 300 mg: 207%, 126%, and 68%, and the 400 mg: 300%, 230%, and 121%.
Definition of “pure” atrial flutter: only Atrial Flutter (no AF) seen at −30, −15, and 0 time points. Conversion at any time within 24 hours.
The highest oral dose of 400 mg achieved a conversion rate of 76% at 8 hours and 84% within 24 hours.

[5] = Adverse events in the AF/AFL conversion study (Example 6); assay type: in vivo, human
Source text: as §1

[6] = test system: conversion to normal sinus rhythm; assay: Human plasma concentration charted against conversion to normal sinus rhythm; assay type: in vivo
Experimental: This study favorable compares favorably to human models where plasma concentration is charted against conversion to normal sinus rhythm. […] However, most conversions occurred in the range of about 60 ng/ml. Accordingly, modifying doses to reach 60 ng/ml or higher is preferred for effective conversion to normal sinus rhythm.

[7] = cited from earlier work
[8] = cited from earlier work; remark: listed apart in the source
[9] = between patients; cited from earlier work

Highest plasma level, low concentration group [1]: ~40 ng/mL | PK linearity / dose proportionality (clinical): linear and dose proportional | TMax (mean +− SD) (clinical): TMax 1.27 +− 0.5 hr | TMax range (clinical; 50 mg): (0.5-2.0) hr | half-life (clinical; 50 mg): 4.71 to 111 h | half-life (clinical; 75 mg): 10.3 to 117 h | half-life (clinical; 100 mg): 5.56 to 125 h | All patients achieved steady state after [2]: 7 to 10 days | Steady-state plasma concentrations achieved after [2]: 3 days | Time to steady-state levels ([3]; all patients, 50, 100, 150 mg daily): within one week
SMILES: Fc1ccc(C(OCCN2CCN(CCCc3ccccc3)CC2)c2ccc(F)cc2)cc1 [Vanoxerine, 1-[2-[bis(4-fluorophenyl)methoxy]ethyl]-4-(3-phenylpropyl)piperazine]
Dose proportionality of steady-state serum levels [2]: disproportionately and statistically greater levels at higher doses | Systolic blood pressure and heart rate ([3]; 100 mg for 7 days): increases in systolic blood pressure and heart rate were seen | Improvement of conversion (percent increase over placebo) ([4]; 200 mg, 0-4 hours): 38% | Improvement of conversion (percent increase over placebo) ([4]; 200 mg, 0-8 hours): 96% | Improvement of conversion (percent increase over placebo) ([4]; 200 mg, 0-24 hours): 55% | Improvement of conversion (percent increase over placebo) ([4]; 300 mg, 0-24 hours): 68% | Improvement of conversion (percent increase over placebo) ([4]; 400 mg, 0-4 hours): 300% | Improvement of conversion (percent increase over placebo) ([4]; 400 mg, 0-8 hours): 230% | Dose dependence of conversion to sinus rhythm ([4]; doses of 200, 300 and 400 mg): highly statistically significant dose dependent increase | Number of adverse events reported ([5]; 200 mg (22)): 8 AEs | Number of serious adverse events ([5]; 200 mg (22)): 1 SAE | Number of adverse events reported ([5]; 300 mg (25)): 12 AEs | Number of adverse events reported ([5]; 400 mg (25)): 23 AEs | Number of serious adverse events ([5]; 400 mg (25)): 1 SAE | Tolerability ([5]; all doses): well tolerated at all doses | 1:1 AFL post dose ([5]; any subject): No 1:1 AFL seen post dose in any subject | Proarrhythmia ([5]; conversion of recent onset symptomatic AF and AFL): absence of proarrhythmia | Serious adverse events in the study ([5]; one at 200 mg, one at 400 mg, neither related to the study drug): two | Concentration at which most conversions occurred [6]: about 60 ng/ml | AUC ([7]; fasting (no food intake for eight hours)): lowest AUC | Cmax ([7]; high-fat diet (about 73 g fat) versus fasting and low-fat): significantly increased Cmax | Time the concentration remains elevated ([7]; high-fat diet): four to six hours | tmax ([7]; high-fat diet): nearly two and a half hours | Plasma half-life ([8]; in vivo): about 22 hours | Steady state achieved within ([8]; oral dosing, some cases): ≤ 3 days | Difference in Cmax concentrations or AUC between slower and higher metabolism groups [9]: ≥ 10 fold
